Measurements published in patent publication US10766869B2, “Triazoles for the treatment of demyelinating dieases” (Vertex Pharmaceuticals Incorporated, priority 2015, dated 2020).

System: primary rat mixed cortical cells
Experiment: In vitro myelination assay (MBP positive myelin strands, fold myelin pixels above background)
Assay type: cell-based
Settings: Rattus norvegicus, relative to baseline of no added compound; for fold induction at 1 µM: 1.0 μM compound, read-out: Fold myelin pixels above background, 1.0 μM; for fold induction at 10 µM: 10.0 μM compound, read-out: Fold myelin pixels above background, 10.0 μM
Procedure, shortened: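 Read-out is total MBP-positive myelin strand pixels per well, detected by custom ridge-tracing software and reported as fold over untreated baseline. Primary P1 rat mixed cortical cells received compound (1.0 or 10.0 μM) for 14 days, with medium half-replaced on days 6 and 10. Standard deviation was taken across all replicates.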

| SMILES | fold induction at 1 µM | fold induction at 10 µM |
| --- | --- | --- |
| CCc1cc(Nc2ncn(-c3ccccc3)n2)cc(N2CCN(C3COC3)CC2)c1 [Compound 330, N-[3-ethyl-5-[4-(oxetan-3-yl)piperazin-1-yl]phenyl]-1-phenyl-1,2,4-triazol-3-amine] | 1000 to 10000 | ≤ 1 |
| Fc1cc(F)cc(-n2cnc(Nc3cc(C4CC4)nc(N4CC[C@H](F)C4)c3)n2)c1 [Compound 332, 2-cyclopropyl-N-[1-(3,5-difluorophenyl)-1,2,4-triazol-3-yl]-6-[(3S)-3-fluoropyrrolidin-1-yl]pyridin-4-amine] | 100 to 1000 | 10 to 100 |
| Cc1cc(Nc2ncn(-c3ccccc3)n2)cc(C2CCN(C)CC2)c1 [Compound 333, N-[3-methyl-5-(1-methyl-4-piperidyl)phenyl]-1-phenyl-1,2,4-triazol-3-amine] | 1000 to 10000 | ≤ 1 |
| Cc1cc(Nc2ncn(-c3ccccc3)n2)cc(NC2CCN(C3COC3)CC2)c1 [Compound 334, 5-methyl-N1-[1-(oxetan-3-yl)-4-piperidyl]-N3-(1-phenyl-1,2,4-triazol-3-yl)benzene-1,3-diamine] | 100 to 1000 | 1000 to 10000 |
| Clc1cc(Nc2ncn(-c3ccccc3)n2)cc(N2CCOCC2)c1 [Compound 335, N-(3-chloro-5-morpholino-phenyl)-1-phenyl-1,2,4-triazol-3-amine] | 1000 to 10000 | 10 to 100 |
| Fc1cc(Nc2ncn(-c3ccccc3)n2)cc(N2CCCC2)c1 [Compound 336, N-(3-fluoro-5-pyrrolidin-1-yl-phenyl)-1-phenyl-1,2,4-triazol-3-amine] | 1 to 10 | ≤ 1 |
| Cc1cc(Nc2ncn(-c3ccccc3)n2)cc(N2CCCN(C3CC3)CC2)c1 [Compound 337, N-[3-(4-cyclopropyl-1,4-diazepan-1-yl)-5-methyl-phenyl]-1-phenyl-1,2,4-triazol-3-amine] | 100 to 1000 | ≤ 1 |
| CCc1cc(Nc2ncn(-c3cc(C)ccc3F)n2)cc(N2CCN(C3COC3)CC2)c1 [Compound 338, N-[3-ethyl-5-[4-(oxetan-3-yl)piperazin-1-yl]phenyl]-1-(2-fluoro-5-methyl-phenyl)-1,2,4-triazol-3-amine] | 1 to 10 | 10 to 100 |
| Fc1cncc(-n2cnc(Nc3cc(C4CC4)cc(N4CCN(C5COC5)CC4)c3)n2)c1 [Compound 339, N-[3-cyclopropyl-5-[4-(oxetan-3-yl)piperazin-1-yl]phenyl]-1-(5-fluoro-3-pyridyl)-1,2,4-triazol-3-amine] | 100 to 1000 | 10 to 100 |
| Cc1cc(Nc2ncn(-c3ccccc3)n2)cc(C2CCCN(C3CC3)C2)c1 (stereo not shown) [Compound 340, N-[3-(1-cyclopropyl-3-piperidyl)-5-methyl-phenyl]-1-phenyl-1,2,4-triazol-3-amine] | 100 to 1000 | ≤ 1 |
| CCc1cc(Nc2ncn(-c3cnccn3)n2)cc(N2CC(N3CCOCC3)C2)c1 [Compound 341, N-[3-ethyl-5-(3-morpholinoazetidin-1-yl)phenyl]-1-pyrazin-2-yl-1,2,4-triazol-3-amine] | ≤ 1 | 1 to 10 |
| Cc1cc(Nc2ncn(-c3cccnc3)n2)cc(NC2CCN(C3COC3)CC2)c1 [Compound 342, 5-methyl-N1-[1-(oxetan-3-yl)-4-piperidyl]-N3-[1-(3-pyridyl)-1,2,4-triazol-3-yl]benzene-1,3-diamine] | 1000 to 10000 | 10 to 100 |
| Fc1cc(Nc2ncn(-c3ccc(F)cc3F)n2)cc(N2CCCOCC2)c1 [Compound 343, 1-(2,4-difluorophenyl)-N-[3-fluoro-5-(1,4-oxazepan-4-yl)phenyl]-1,2,4-triazol-3-amine] | ≤ 1 | 100 to 1000 |
| CS(=O)(=O)c1cc(Nc2ncn(-c3cc(F)cc(F)c3)n2)cc(N2CCN(C3COC3)CC2)c1 [Compound 344, 1-(3,5-difluorophenyl)-N-[3-methylsulfonyl-5-[4-(oxetan-3-yl)piperazin-1-yl]phenyl]-1,2,4-triazol-3-amine] | 100 to 1000 | 10 to 100 |
| COc1ccc(-n2cnc(Nc3cc(Cl)nc(N4CCOCC4)c3)n2)cc1OC [Compound 345, 2-chloro-N-[1-(3,4-dimethoxyphenyl)-1,2,4-triazol-3-yl]-6-morpholino-pyridin-4-amine] | 10 to 100 | 1 to 10 |
| Fc1cc(F)cc(-n2cnc(Nc3cc(Br)cc(N4CCOCC4)c3)n2)c1 [Compound 346, N-(3-bromo-5-morpholino-phenyl)-1-(3,5-difluorophenyl)-1,2,4-triazol-3-amine] | 1000 to 10000 | 1000 to 10000 |

| SMILES | fold induction at 1 µM | fold induction at 10 µM |
| --- | --- | --- |
| CN(C)C1CCN(c2cc(F)cc(Nc3ncn(-c4ccc(F)cc4F)n3)c2)C1 (stereo not shown) [Compound 347, 1-(2,4-difluorophenyl)-N-[3-[3-(dimethylamino)pyrrolidin-1-yl]-5-fluoro-phenyl]-1,2,4-triazol-3-amine] | ≤ 1 | ≤ 1 |
| FC(F)c1cc(Nc2ncn(-c3ccccc3)n2)cc(N2CCN(C3CC3)CC2)c1 [Compound 348, N-[3-(4-cyclopropylpiperazin-1-yl)-5-(difluoromethyl)phenyl]-1-phenyl-1,2,4-triazol-3-amine] | 1000 to 10000 | 100 to 1000 |
| Cc1cc(Nc2ncn(-c3cc(F)cc(F)c3)n2)cc(N2CCN(C)C3(COC3)C2)c1 [Compound 349, 1-(3,5-difluorophenyl)-N-[3-methyl-5-(9-methyl-2-oxa-6,9-diazaspiro[3.5]nonan-6-yl)phenyl]-1,2,4-triazol-3-amine] | 10 to 100 | 100 to 1000 |
| Cc1cc(Nc2ncn(-c3cc(F)cc(F)c3)n2)cc(N2CCN(C(=O)OCC(F)(F)F)CC2)c1 [Compound 350, 2,2,2-trifluoroethyl 4-[3-[[1-(3,5-difluorophenyl)-1,2,4-triazol-3-yl]amino]-5-methyl-phenyl]piperazine-1-carboxylate] | ≤ 1 | ≤ 1 |
| Fc1cc(Nc2ncn(-c3cccc(F)c3)n2)cc(NC2CNC2)c1 [Compound 351, N1-(azetidin-3-yl)-5-fluoro-N3-[1-(3-fluorophenyl)-1,2,4-triazol-3-yl]benzene-1,3-diamine] | 10 to 100 | ≤ 1 |
| Cc1cc(Nc2ncn(-c3cc(F)cc(F)c3)n2)cc(N2CCN(C(=O)C(F)(F)F)CC2)c1 [Compound 352, 1-[4-[3-[[1-(3,5-difluorophenyl)-1,2,4-triazol-3-yl]amino]-5-methyl-phenyl]piperazin-1-yl]-2,2,2-trifluoro-ethanone] | ≤ 1 | 100 to 1000 |
| COCc1cc(-n2cnc(Nc3cc(C4CC4)cc(N4CCN(C5COC5)CC4)c3)n2)ncn1 [Compound 353, N-[3-cyclopropyl-5-[4-(oxetan-3-yl)piperazin-1-yl]phenyl]-1-[6-(methoxymethyl)pyrimidin-4-yl]-1,2,4-triazol-3-amine] | 1000 to 10000 | 100 to 1000 |
| COc1ccc(-n2cnc(Nc3cc(C4CC4)nc(N4CCOCC4)c3)n2)cc1OC [Compound 354, 2-cyclopropyl-N-[1-(3,4-dimethoxyphenyl)-1,2,4-triazol-3-yl]-6-morpholino-pyridin-4-amine] | 1 to 10 | 100 to 1000 |
| Cc1cc(Nc2ncn(-c3cc(F)cc(F)c3)n2)cc(N2CC(O)C2)c1 [Compound 355, 1-[3-[[1-(3,5-difluorophenyl)-1,2,4-triazol-3-yl]amino]-5-methyl-phenyl]azetidin-3-ol] | 10 to 100 | 100 to 1000 |
| Cc1cc(Nc2ncn(-c3ccc(C(F)(F)F)cc3)n2)cc(N2CCCC2)c1 [Compound 356, N-(3-methyl-5-pyrrolidin-1-yl-phenyl)-1-[4-(trifluoromethyl)phenyl]-1,2,4-triazol-3-amine] | ≤ 1 | 10 to 100 |
| FC(F)(F)c1cc(Nc2ncn(-c3cnccn3)n2)cc(N2CCOCC2)c1 [Compound 357, N-[3-morpholino-5-(trifluoromethyl)phenyl]-1-pyrazin-2-yl-1,2,4-triazol-3-amine] | 1 to 10 | 1 to 10 |
| CC(C)c1cc(Nc2ncn(-c3cc(F)cc(F)c3)n2)cc(N2CCN(C3COC3)CC2)c1 [Compound 359, 1-(3,5-difluorophenyl)-N-[3-isopropyl-5-[4-(oxetan-3-yl)piperazin-1-yl]phenyl]-1,2,4-triazol-3-amine] | 1000 to 10000 | ≤ 1 |
| Cc1cc(Nc2ncn(-c3cc(F)cc(F)c3)n2)cc(N2CCN(C)C(=O)C2)c1 [Compound 360, 4-[3-[[1-(3,5-difluorophenyl)-1,2,4-triazol-3-yl]amino]-5-methyl-phenyl]-1-methyl-piperazin-2-one] | 10 to 100 | 10 to 100 |
| CS(=O)(=O)c1cc(Nc2ncn(-c3cccc(F)c3)n2)cc(N2CCN(C3COC3)CC2)c1 [Compound 361, 1-(3-fluorophenyl)-N-[3-methylsulfonyl-5-[4-(oxetan-3-yl)piperazin-1-yl]phenyl]-1,2,4-triazol-3-amine] | 100 to 1000 | ≤ 1 |
| Cc1cc(Nc2ncn(-c3cc(F)cc(F)c3)n2)cc(N2CCNC(C)C2)c1 (stereo not shown) [Compound 362, 1-(3,5-difluorophenyl)-N-[3-methyl-5-(3-methylpiperazin-1-yl)phenyl]-1,2,4-triazol-3-amine] | 100 to 1000 | ≤ 1 |
| Cc1cc(Nc2ncn(-c3ccccc3)n2)cc(C2COC2)c1 [Compound 363, N-[3-methyl-5-(oxetan-3-yl)phenyl]-1-phenyl-1,2,4-triazol-3-amine] | 1000 to 10000 | 100 to 1000 |
